5 compounds from patent US20260207573A1, “EFFECT OF RIVOCERANIB ON CYTOCHROME P450 ENZYME SUBSTRATES” (ELEVAR THERAPEUTICS, INC., priority 2022, published 2026) can be followed below.

Molecules are shown by their SMILES.

One series deals with CYP3A4/5. Put plainly: Example 1 pharmacokinetic interaction study, rivoceranib 200 mg + Cooperstown 5+1 cocktail: midazolam probe. The conditions noted are these: for AUC(0-t), Geometric Mean Ratio, (Cooperstown Cocktail + Rivoceranib)/Cooperstown Cocktail Alone / AUC(0-∞), Geometric Mean Ratio, (Cooperstown Cocktail + Rivoceranib)/Cooperstown Cocktail Alone / Cmax, Geometric Mean Ratio, (Cooperstown Cocktail + Rivoceranib)/Cooperstown Cocktail Alone: rivoceranib 200 mg daily, D11 vs D1.

For the next series, the system named is CYP3A. Description: Example 2 phase 1 drug-drug interaction study, rivoceranib 700 mg QD + 5+1 cocktail: midazolam probe. The settings on record: for AUC(0-t), Geometrical mean Ratio, % (90% CI) / AUC(0-∞), Geometrical mean Ratio, % (90% CI) / Cmax, Geometrical mean Ratio, % (90% CI): rivoceranib 700 mg QD, 100*LSM Rivoceranib Plus 5+1 Cocktail/LSM 5+1 Cocktail Alone; for AUC(0-t) / AUC(0-inf) / Cmax: human, in vivo. Also noted: AUC(0-t), Mean (CV %), 5 + 1 cocktail alone / AUC(0-t), Geometric LSM, 5 + 1 cocktail alone / AUC(0-t), Mean (CV %), Rivoceranib plus 5 + 1 cocktail / AUC(0-t), Geometric LSM, Rivoceranib plus 5 + 1 cocktail / AUC(0-∞), Mean (CV %), 5 + 1 cocktail alone / AUC(0-∞), Geometric LSM, 5 + 1 cocktail alone / AUC(0-∞), Mean (CV %), Rivoceranib plus 5 + 1 cocktail / AUC(0-∞), Geometric LSM, Rivoceranib plus 5 + 1 cocktail: unit not given beside the values. The procedure:
(§1) This example describes a pharmacokinetic interaction study in healthy human volunteers dosed with 700 mg rivoceranib and a mixture of cytochrome P450 enzyme (CYP1A2, CYP2C9, CYP2C19, CYP2D6, and CYP3A) substrates.
(§2) The primary objective of the study was to evaluate the effect of rivoceranib 700 mg once daily (QD) on the pharmacokinetics (PK) of various CYP substrates to determine drug-drug interactions of rivoceranib.
(§3) This was an open-label, 2-treatment, fixed-sequence drug-drug interaction phase 1 study designed to evaluated the impact of multiple oral doses of 700 mg rivoceranib on the single-dose PK of CYP enzyme substrates administered in a 5+1 Cooperstown probe cocktail (caffeine [CYP1A2], S- and R-warfarin [CYP2C9]+vitamin K, omeprazole [CYP2C19], dextromethorphan [CYP2D6], and midazolam [CYP3A]) in healthy volunteers (N=32). On day 1, volunteers received a single dose of the 5+1 cocktail comprising 200 mg caffeine, 10 mg S- and R-warfarin with 10 mg vitamin K, 40 mg omeprazole, 30 mg dextromethorphan, and 2 mg midazolam. Blood samples were collected pre-dose on day 1 and up to 120 hours post-dose for PK analyses of the substrates in the 5+1 cocktail. On days 6 to 15, volunteers received 700 mg rivoceranib once daily for 10 consecutive days with a single dose of the 5+1 cocktail administered on day 11. Blood samples were collected pre-dose on day 11 and up to 120 hours post cocktail dosing (day 16) for PK analyses. Each dosing was under fasted conditions. There was a washout period of 5 days between day 1 dosing and the first rivoceranib dose on day 6; the 2 cocktail dosings were spaced by 10 days.

The next series addresses CYP2C19 (Homo sapiens, UniProt P33261). The conditions noted are these: in vivo, po.
Series [1] deals with T1, CYP2D6 (Homo sapiens, UniProt P10635). Description: Example 1 pharmacokinetic interaction study, rivoceranib 200 mg + Cooperstown 5+1 cocktail: dextromethorphan probe. The settings on record: for AUC(0-t), Geometric Mean Ratio, (Cooperstown Cocktail + Rivoceranib)/Cooperstown Cocktail Alone / AUC(0-∞), Geometric Mean Ratio, (Cooperstown Cocktail + Rivoceranib)/Cooperstown Cocktail Alone / Cmax, Geometric Mean Ratio, (Cooperstown Cocktail + Rivoceranib)/Cooperstown Cocktail Alone: rivoceranib 200 mg daily, D11 vs D1.
T1 sequence (P10635 whole entry): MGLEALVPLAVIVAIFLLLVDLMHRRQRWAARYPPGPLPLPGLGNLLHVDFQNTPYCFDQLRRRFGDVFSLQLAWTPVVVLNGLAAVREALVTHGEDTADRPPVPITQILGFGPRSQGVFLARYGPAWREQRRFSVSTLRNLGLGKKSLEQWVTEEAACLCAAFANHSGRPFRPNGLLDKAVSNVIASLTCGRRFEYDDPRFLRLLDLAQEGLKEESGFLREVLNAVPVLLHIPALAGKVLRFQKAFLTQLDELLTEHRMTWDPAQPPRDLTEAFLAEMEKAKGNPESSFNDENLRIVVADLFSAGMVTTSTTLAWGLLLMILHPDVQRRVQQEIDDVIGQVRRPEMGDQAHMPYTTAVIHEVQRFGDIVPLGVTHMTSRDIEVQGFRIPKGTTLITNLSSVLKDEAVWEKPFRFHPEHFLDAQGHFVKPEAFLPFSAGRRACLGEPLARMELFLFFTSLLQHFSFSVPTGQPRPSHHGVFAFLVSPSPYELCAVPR

The target in series [2] is T1, CYP2D6. Description: Example 2 phase 1 drug-drug interaction study, rivoceranib 700 mg QD + 5+1 cocktail: dextromethorphan probe. The conditions noted are these: for AUC(0-t) / AUC(0-inf) / Cmax: human, in vivo, healthy volunteers; for AUC(0-t), Geometrical mean Ratio, % (90% CI) / AUC(0-∞), Geometrical mean Ratio, % (90% CI) / Cmax, Geometrical mean Ratio, % (90% CI): rivoceranib 700 mg QD, 100*LSM Rivoceranib Plus 5+1 Cocktail/LSM 5+1 Cocktail Alone. The procedure:
as §1, §2, §3

Setting [3] is: healthy volunteers, 5+1 cocktail day 11 + rivoceranib 700 mg QD days 6-15.
Setting [4] is: healthy volunteers, single oral 5+1 cocktail dose day 1, fasted.
[5] abbreviates: rivoceranib 200 mg once daily, oral substrate.
The mark [6] stands for this setting: Geometric LSM, Rivoceranib plus 5 + 1 cocktail, 5+1 cocktail day 11 + rivoceranib 700 mg QD days 6-15.
The mark [7] stands for this setting: Mean (CV %), Rivoceranib plus 5 + 1 cocktail, 5+1 cocktail day 11 + rivoceranib 700 mg QD days 6-15.
[8] abbreviates: po, Geometric LSM, 5 + 1 cocktail alone, single oral 5+1 cocktail dose day 1, fasted.
The mark [9] stands for this setting: po, Mean (CV %), 5 + 1 cocktail alone, single oral 5+1 cocktail dose day 1, fasted.
[10] abbreviates: Geometric LSM, Rivoceranib plus 5 + 1 cocktail, healthy volunteers, 5+1 cocktail day 11 + rivoceranib 700 mg QD days 6-15.
[11] abbreviates: Mean (CV %), Rivoceranib plus 5 + 1 cocktail, healthy volunteers, 5+1 cocktail day 11 + rivoceranib 700 mg QD days 6-15.
Setting [12] is: po, 2 mg, Geometric LSM, 5 + 1 cocktail alone, healthy volunteers, single oral 5+1 cocktail dose day 1, fasted.
Setting [13] is: po, 2 mg, Mean (CV %), 5 + 1 cocktail alone, healthy volunteers, single oral 5+1 cocktail dose day 1, fasted.

A word on the AUC(0-t): it is the area under the concentration-time curve up to a stated or last time point. As a reminder, the AUC(0-inf) is total exposure, with the tail of the curve extrapolated. What is called Cmax is the maximum level reached in the sampled fluid or tissue.

Chain of CYP2C19 (P33261 whole entry): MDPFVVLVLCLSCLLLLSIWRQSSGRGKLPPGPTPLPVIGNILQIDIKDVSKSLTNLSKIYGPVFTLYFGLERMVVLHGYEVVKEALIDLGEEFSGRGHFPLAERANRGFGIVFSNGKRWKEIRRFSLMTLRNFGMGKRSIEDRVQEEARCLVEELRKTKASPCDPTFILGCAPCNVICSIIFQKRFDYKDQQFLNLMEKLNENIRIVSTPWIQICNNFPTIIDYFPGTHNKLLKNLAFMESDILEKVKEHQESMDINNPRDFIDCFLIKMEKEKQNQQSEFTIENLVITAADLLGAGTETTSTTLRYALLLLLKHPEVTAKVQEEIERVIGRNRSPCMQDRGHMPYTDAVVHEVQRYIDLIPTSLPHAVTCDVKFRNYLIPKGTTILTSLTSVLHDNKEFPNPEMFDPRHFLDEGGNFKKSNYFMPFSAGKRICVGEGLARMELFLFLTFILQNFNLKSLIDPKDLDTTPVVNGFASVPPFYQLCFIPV

Take `OCc1ncc2n1-c1ccc(Cl)cc1C(c1ccccc1F)=NC2` [1-hydroxymidazolam]: in the series with CYP3A4/5, the “AUC(0-t), Geometric Mean Ratio, (Cooperstown Cocktail + Rivoceranib)/Cooperstown Cocktail Alone” value (from here on “AUC(0-t), Geometric Mean Ratio”) is 1.2627; the “AUC(0-∞), Geometric Mean Ratio, (Cooperstown Cocktail + Rivoceranib)/Cooperstown Cocktail Alone” value (shortened to “AUC(0-∞), Geometric Mean Ratio”) worked out at 1.1355; the “Cmax, Geometric Mean Ratio, (Cooperstown Cocktail + Rivoceranib)/Cooperstown Cocktail Alone” value (“Cmax, Geometric Mean Ratio” below) is listed as 0.8913. In addition, in the series with CYP3A (setting [3]), the “AUC(0-t), Geometric LSM, Rivoceranib plus 5 + 1 cocktail” value is 13.89; the “AUC(0-t), Mean (CV %), Rivoceranib plus 5 + 1 cocktail” value was 14.37; the “AUC(0-∞), Geometric LSM, Rivoceranib plus 5 + 1 cocktail” value is 15.16; the “AUC(0-∞), Mean (CV %), Rivoceranib plus 5 + 1 cocktail” value is recorded as 15.67. Moreover, in the series with CYP3A (setting [3]), the “Cmax, Geometric LSM, Rivoceranib plus 5 + 1 cocktail” value is 4.639 ng/mL and the “Cmax, Mean (CV %), Rivoceranib plus 5 + 1 cocktail” value is listed as 4.797 ng/mL. Besides, in the series with CYP3A (setting [4]), the “AUC(0-t), Geometric LSM, 5 + 1 cocktail alone” value came out at 9.643; the “AUC(0-t), Mean (CV %), 5 + 1 cocktail alone” value worked out at 9.643; the “AUC(0-∞), Geometric LSM, 5 + 1 cocktail alone” value amounted to 10.21; the “AUC(0-∞), Mean (CV %), 5 + 1 cocktail alone” value is 10.18. In the series on CYP3A (setting [4]), the “Cmax, Geometric LSM, 5 + 1 cocktail alone” value amounted to 4.115 ng/mL and the “Cmax, Mean (CV %), 5 + 1 cocktail alone” value was found to be 4.115 ng/mL. Also, in the series on CYP3A, the “AUC(0-t), Geometrical mean Ratio, % (90% CI)” value is reported as 144.05%; the “AUC(0-∞), Geometrical mean Ratio, % (90% CI)” value worked out at 148.48%; the “Cmax, Geometrical mean Ratio, % (90% CI)” value is on record as 112.73%.
With `COc1ccc2nc([S+]([O-])Cc3ncc(CO)c(OC)c3C)[nH]c2c1` (stereo not drawn) [5-hydroxyomeprazole], on CYP2C19, the “AUC(0-t), Geometric LS Mean, Cooperstown Cocktail Alone” value was 6.6476; the “AUC(0-∞), Geometric LS Mean, Cooperstown Cocktail Alone” value was determined as 6.6678; the “Cmax, Geometric LS Mean, Cooperstown Cocktail Alone” value was 5.3867.
Take `COc1ccc2c(c1)[C@]13CCCC[C@@H]1[C@H](C2)N(C)CC3` [dextromethorphan]: at CYP2D6 [1], the “AUC(0-t), Geometric Mean Ratio” value is 2.5448; the “AUC(0-∞), Geometric Mean Ratio” value is given as 2.6650; the “Cmax, Geometric Mean Ratio” value was 1.9039. Further, at CYP2D6 [1] (setting [5]), the “increase in AUC0-∞ on coadministration of rivoceranib relative to Cooperstown 5+1 cocktail only” value stood at 144% and the “increase in Cmax on coadministration of rivoceranib relative to Cooperstown 5+1 cocktail only” value is reported as 70%. Also, on CYP2D6 [2] (setting [6]), the AUC(0-t) amounted to 27.1 ng·h/mL, the AUC(0-inf) was determined as 36.2 ng·h/mL and the Cmax came out at 2.78 ng/mL. In addition, at CYP2D6 [2] (setting [7]), the AUC(0-t) stood at 23.7 ng·h/mL, the AUC(0-inf) turned out to be 33.2 ng·h/mL and the Cmax was determined as 2.53 ng/mL. At CYP2D6 [2] (setting [8]), the AUC(0-t) stood at 10.4 ng·h/mL, the AUC(0-inf) came to 13.3 ng·h/mL and the Cmax was 1.4 ng/mL. Moreover, on CYP2D6 [2] (setting [9]), the AUC(0-t) was determined as 10.4 ng·h/mL, the AUC(0-inf) was found to be 14 ng·h/mL and the maximum concentration (Cmax) amounted to 1.4 ng/mL. Further, on CYP2D6 [2] (rivoceranib 700 mg), the “increase in exposure with rivoceranib” value is reported as 2- to 2.7 fold. Besides, at CYP2D6 [2], the “AUC(0-t), Geometrical mean Ratio, % (90% CI)” value stood at 259.87%; the “AUC(0-∞), Geometrical mean Ratio, % (90% CI)” value worked out at 272.50%; the “Cmax, Geometrical mean Ratio, % (90% CI)” value is given as 198.80%.
As to `CN1CC[C@@]23CCCC[C@@H]2[C@@H]1Cc1ccc(O)cc13` [dextrorphan], at CYP2D6 [1], the “AUC(0-t), Geometric Mean Ratio” value was determined as 1.1509; the “AUC(0-∞), Geometric Mean Ratio” value was found to be 1.1104; the “Cmax, Geometric Mean Ratio” value came out at 0.8950. Besides, at CYP2D6 [2] (setting [6]), the AUC(0-t) stood at 33.7 ng·h/mL, the AUC(0-inf) stood at 37.1 ng·h/mL and the Cmax was determined as 4.74 ng/mL. On CYP2D6 [2] (setting [7]), the AUC(0-t) was determined as 34.5 ng·h/mL, the AUC(0-inf) came out at 37.8 ng·h/mL and the Cmax amounted to 4.88 ng/mL. Besides, at CYP2D6 [2] (setting [8]), the AUC(0-t) was determined as 26.1 ng·h/mL, the AUC(0-inf) stood at 27.9 ng·h/mL and the Cmax is 4.66 ng/mL. On CYP2D6 [2] (setting [9]), the AUC(0-t) amounted to 26.1 ng·h/mL, the AUC(0-inf) turned out to be 27.9 ng·h/mL and the Cmax came to 4.66 ng/mL. Further, on CYP2D6 [2], the “AUC(0-t), Geometrical mean Ratio, % (90% CI)” value came out at 129.07%; the “AUC(0-∞), Geometrical mean Ratio, % (90% CI)” value came to 133.22%; the “Cmax, Geometrical mean Ratio, % (90% CI)” value is 101.70%.
`Cc1ncc2n1-c1ccc(Cl)cc1C(c1ccccc1F)=NC2` [midazolam]: in the series with CYP3A4/5, the “AUC(0-t), Geometric Mean Ratio” value was 1.5573; the “AUC(0-∞), Geometric Mean Ratio” value was 1.4451; the “Cmax, Geometric Mean Ratio” value is 1.1509. In addition, in the series with CYP3A4/5 (setting [5]), the “increase in AUC0-∞ following coadministration with rivoceranib” value is on record as 65% and the “increase in Cmax following coadministration with rivoceranib” value amounted to 16%. In the series on CYP3A (setting [10]), the exposure AUC(0-t) turned out to be 75.2 ng·h/mL, the AUC(0-inf) was determined as 82.1 ng·h/mL and the Cmax came out at 25.7 ng/mL. In the series on CYP3A (setting [11]), the AUC(0-t) is 75.5 ng·h/mL, the AUC(0-inf) came to 82.5 ng·h/mL and the Cmax is 25.7 ng/mL. Further, in the series on CYP3A (setting [12]), the area under the curve AUC(0-t) is 28.1 ng·h/mL, the AUC(0-inf) stood at 29.7 ng·h/mL and the Cmax stood at 10.8 ng/mL. In the series on CYP3A (setting [13]), the AUC(0-t) was 28.1 ng·h/mL, the AUC(0-inf) turned out to be 29.7 ng·h/mL and the Cmax was 10.8 ng/mL. Further, the “increase in exposure following coadministration with rivoceranib” value with CYP3A (rivoceranib 700 mg) is 2.4- to 2.8 fold. In addition, in the series with CYP3A, the “AUC(0-t), Geometrical mean Ratio, % (90% CI)” value amounted to 267.59%; the “AUC(0-∞), Geometrical mean Ratio, % (90% CI)” value was determined as 276.27%; the “Cmax, Geometrical mean Ratio, % (90% CI)” value was found to be 237.88%.
